Data set [1] can be described thus: AUC (0 to 6 hrs) in rat at 10 mg/kg, po. In kind it is ADME, organism-based. Details: time < 6 hr, dose 10 mg/kg, route oral. To be noted: plasma.
For the next data set, the target named is T1, Aurora kinase A (Homo sapiens, UniProt O14965).
T1 sequence (O14965 whole entry): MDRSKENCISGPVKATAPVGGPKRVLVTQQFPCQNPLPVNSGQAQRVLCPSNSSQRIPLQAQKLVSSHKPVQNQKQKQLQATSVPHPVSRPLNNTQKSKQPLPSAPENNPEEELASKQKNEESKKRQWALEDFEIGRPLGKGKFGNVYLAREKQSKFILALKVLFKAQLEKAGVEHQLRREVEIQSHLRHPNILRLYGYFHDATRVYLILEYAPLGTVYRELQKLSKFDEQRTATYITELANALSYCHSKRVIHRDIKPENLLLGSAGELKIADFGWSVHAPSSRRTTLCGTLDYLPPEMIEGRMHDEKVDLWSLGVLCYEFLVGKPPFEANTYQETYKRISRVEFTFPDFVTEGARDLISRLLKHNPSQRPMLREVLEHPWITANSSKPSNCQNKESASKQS
The data set is described as follows: Inhibition of Aurora A.

Data set [2] concerns the target T2, Aurora kinase B (Homo sapiens, UniProt Q96GD4). The experiment in a line: Inhibition of Aurora B.
For data set [3], the target named is T2, Aurora kinase B. The data set is described as follows: Inhibition of Aurora B in human HCT116 cells assessed as inhibition of histone H3 phosphorylation by immunofluorescence assay. In kind it is cell-based, HCT-116.
Data set [4] in a line: Plasma clearance in rat. It is filed as ADME, organism-based.
Data set [5] can be described thus: Oral bioavailability in Sprague-Dawley rat at 30 mg/kg. To be noted: in vivo. In kind it is ADME, organism-based.
Data set [6] can be described thus: Oral AUC in Beagle dog at 10 mg/kg, po. In kind it is ADME, organism-based, Canis lupus familiaris. Details: dose 10 mg/kg, route oral. Particulars: in vivo.
Data set [7] in a line: Oral bioavailability in Beagle dog at 10 mg/kg. Particulars: beagle, in vivo. It is filed as ADME, organism-based, Canis lupus familiaris.
Data set [8] in a line: Oral AUC in cynomolgus monkey at 10 mg/kg, po. In kind it is ADME, organism-based, Macaca fascicularis. Also noted: dose 10 mg/kg, route oral. Particulars: in vivo.
A short description of data set [9]: AUC in CD1 mouse at 50 mg/kg, po. It is filed as ADME, organism-based. Also noted: dose 50 mg/kg, route oral. To be noted: plasma.
Data set [10] in a line: Oral bioavailability in CD1 mouse at 50 mg/kg. It is filed as ADME, organism-based. Particulars: in vivo.
The nature of data set [11]: Oral AUC in Sprague-Dawley rat at 30 mg/kg, po. To be noted: in vivo. It is filed as ADME, organism-based. Details: dose 30 mg/kg, route oral.
Data set [12] can be described thus: Oral bioavailability in cynomolgus monkey at 10 mg/kg. In kind it is ADME, organism-based, Macaca fascicularis. To be noted: in vivo.

Structures are written as SMILES.

T2 sequence (Q96GD4 whole entry): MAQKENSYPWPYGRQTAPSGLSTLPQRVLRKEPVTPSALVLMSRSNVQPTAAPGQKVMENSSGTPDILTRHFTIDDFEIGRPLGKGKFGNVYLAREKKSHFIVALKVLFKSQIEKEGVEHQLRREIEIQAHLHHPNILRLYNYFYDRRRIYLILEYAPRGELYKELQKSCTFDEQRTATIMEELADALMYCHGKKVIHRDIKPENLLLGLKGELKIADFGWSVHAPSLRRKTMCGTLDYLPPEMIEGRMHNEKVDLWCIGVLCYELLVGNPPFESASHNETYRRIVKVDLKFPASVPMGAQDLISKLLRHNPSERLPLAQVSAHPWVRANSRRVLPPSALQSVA

`Cc1cn2c(-c3cn[nH]c3)cnc2c(Nc2cc(CN(CC(F)F)C(C)(C)CO)ns2)n1.Cl` gave an AUC(0-t) at 6 h in data set [1] of 0.28 µM·h. Moreover, the IC50 on Aurora kinase A is no more than 4 nM; against Aurora kinase B [2], no more than 13 nM; on Aurora kinase B [3], 306 nM.
For the molecule `Cc1cn2c(-c3cn[nH]c3)cnc2c(Nc2cc(CN(CC(F)(F)F)C(C)(C)CO)ns2)n1.Cl`, the AUC(0-t) at 6 h in data set [1] came to 0.86 µM·h. Also, the IC50 at Aurora kinase A was no more than 4 nM; at Aurora kinase B [2] it was no more than 13 nM; at Aurora kinase B [3], 198 nM.
In data set [1], `Cc1cn2c(-c3cn[nH]c3)cnc2c(Nc2cc(CN3CCCCC3)ns2)n1.Cl` returned an area under the curve AUC(0-t) at 6 h of 0.21 µM·h. The results for the IC50 against Aurora kinase A, at Aurora kinase B [2] and on Aurora kinase B [3] were no more than 4 nM, no more than 13 nM and 45 nM, respectively. Further, in data set [4], the clearance was determined as 80 mL/min/kg.
`Cc1cn2c(-c3cn[nH]c3)cnc2c(Nc2cc(CN3CCC(F)CC3)ns2)n1.Cl`: the bioavailability was 21% in [5], 38% in data set [7], 10% in data set [10] and 3% in [12]. In data set [1], this molecule displayed an AUC(0-t) at 6 h of 2.2 µM·h. Moreover, the AUC in data set [6] came to 6.1 µM·h; in [8] it was 0.4 µM·h; in data set [9], 1.2 µM·h; in data set [11], 8 µM·h. Also, the results for the IC50 at Aurora kinase A, at Aurora kinase B [2] and on Aurora kinase B [3] were no more than 4 nM, no more than 13 nM and 86 nM, respectively.
In [1], `Cc1cn2c(-c3cn[nH]c3)cnc2c(Nc2cc(CN3CCC(F)(F)CC3)ns2)n1.Cl` returned an AUC(0-t) at 6 h of 0.95 µM·h. The IC50 against Aurora kinase A is no more than 4 nM; against Aurora kinase B [2], no more than 13 nM; on Aurora kinase B [3], 74 nM.
In data set [1], `Cc1cn2c(-c3cn[nH]c3)cnc2c(Nc2cc(CN3CCCC(F)C3)ns2)n1.Cl` (stereo not given) had an AUC(0-t) at 6 h of 1.21 µM·h. Also, the results for the 50% inhibitory concentration (IC50) against Aurora kinase A, on Aurora kinase B [2] and at Aurora kinase B [3] were no more than 4 nM, no more than 13 nM and 193 nM, respectively.
`Cc1cn2c(-c3cn[nH]c3)cnc2c(Nc2cc(CN3CCCC(F)(F)C3)ns2)n1.Cl` registered an AUC(0-t) at 6 h in [1] of 1.56 µM·h. Besides, the IC50 at Aurora kinase A was no more than 4 nM; at Aurora kinase B [2] it was no more than 13 nM; on Aurora kinase B [3], 79 nM.
In the case of `Cc1cn2c(-c3cn[nH]c3)cnc2c(Nc2cc(CN3CCC(C(F)(F)F)CC3)ns2)n1.Cl`, in data set [1], the AUC(0-t) at 6 h stood at 1.34 µM·h. In addition, the IC50 against Aurora kinase A was no more than 4 nM; at Aurora kinase B [2], no more than 13 nM; at Aurora kinase B [3], 218 nM.
For `Cc1cn2c(-c3cn[nH]c3)cnc2c(Nc2cc(CN3CCCC3)ns2)n1`, the IC50 on Aurora kinase A is no more than 4 nM; against Aurora kinase B [2] it was no more than 13 nM; on Aurora kinase B [3], 88 nM.
`Cc1cn2c(-c3cn[nH]c3)cnc2c(Nc2cc(CN3CC[C@H](F)C3)ns2)n1.Cl` had an AUC(0-t) at 6 h in data set [1] of 0.76 µM·h. In addition, the IC50 is no more than 4 nM on Aurora kinase A, no more than 13 nM against Aurora kinase B [2] and 93 nM at Aurora kinase B [3].
On to `Cc1cn2c(-c3cn[nH]c3)cnc2c(Nc2cc(CN3CC[C@@H](F)C3)ns2)n1.Cl`, for which, in data set [1], the area under the curve AUC(0-t) at 6 h was 0.74 µM·h. For the same molecule, the IC50 against Aurora kinase A is no more than 4 nM; against Aurora kinase B [2], no more than 13 nM; on Aurora kinase B [3], 82 nM.
In turn, `Cc1cn2c(-c3cn[nH]c3)cnc2c(Nc2cc(CN3CC(F)(F)C(F)(F)C3)ns2)n1.Cl` gave an AUC(0-t) at 6 h in data set [1] of 0.11 µM·h. Besides, the values for the IC50 against Aurora kinase A, against Aurora kinase B [2] and at Aurora kinase B [3] were no more than 4 nM, no more than 13 nM and 50 nM, respectively.
Consider `Cc1cn2c(-c3cn[nH]c3)cnc2c(Nc2cc(CN3CC(F)C3)ns2)n1.O=C(O)C(F)(F)F`, for which the AUC(0-t) at 6 h in [1] was found to be 0.18 µM·h. The IC50 against Aurora kinase A is no more than 4 nM; against Aurora kinase B [2], no more than 13 nM; at Aurora kinase B [3] it was 191 nM.
For the molecule `Cc1cn2c(-c3cn[nH]c3)cnc2c(Nc2cc(CN3CC(F)(F)C3)ns2)n1.O=C(O)C(F)(F)F`, the bioavailability in [5] turned out to be 12%. The AUC(0-t) at 6 h in [1] came out at 12.1 µM·h. The AUC in [6] worked out at 3.8 µM·h; in data set [8], 0.1 µM·h; in data set [9], 7.1 µM·h; in data set [11] it was 7.1 µM·h. Moreover, the IC50 was no more than 4 nM against Aurora kinase A, no more than 13 nM on Aurora kinase B [2] and 76 nM at Aurora kinase B [3].
With `Cc1cn2c(-c3cn[nH]c3)cnc2c(Nc2cc(CNCCC(F)(F)F)ns2)n1.Cl`, the bioavailability in data set [5] amounted to 22%. In data set [1], this molecule gave an AUC(0-t) at 6 h of 10.9 µM·h. The AUC in [6] is 0.3 µM·h; in data set [8] it was 0.03 µM·h; in data set [9], 11.1 µM·h; in [11], 20.5 µM·h. For the same molecule, the values for the IC50 at Aurora kinase A, against Aurora kinase B [2] and at Aurora kinase B [3] were no more than 4 nM, no more than 13 nM and 63 nM, respectively. Moreover, the clearance in [4] is 12 mL/min/kg.
Molecule `Cc1cn2c(-c3cn[nH]c3)cnc2c(Nc2cc(CNCC(F)(F)C(F)(F)F)ns2)n1.Cl` showed an AUC(0-t) at 6 h in [1] of 3.42 µM·h. Further, the IC50 on Aurora kinase A is no more than 4 nM; against Aurora kinase B [2], no more than 13 nM; on Aurora kinase B [3] it was 51 nM.
Molecule `Cl.[2H]C([2H])(c1cc(Nc2nc(C)cn3c(-c4cn[nH]c4)cnc23)sn1)N1CCCCC1` registered a clearance in data set [4] of 35 mL/min/kg.
The same measure, in the same setting: for `Cl.[2H]C([2H])(NCCC(F)(F)F)c1cc(Nc2nc(C)cn3c(-c4cn[nH]c4)cnc23)sn1` the value was 5.1 mL/min/kg.

A word on the AUC(0-t): it is exposure summed from dosing to a finite time, without extrapolation to infinity. A word on the IC50: it is the concentration at which inhibition is half-maximal. One may read the clearance as the volume of plasma or blood freed of the substance per unit of time. As a reminder, the bioavailability is dose-corrected exposure relative to a reference, in per cent. As a reminder, the AUC is the area under the concentration-time curve, a measure of exposure.

The record behind these values is ChEMBL document CHEMBL1649074, “Aurora kinase inhibitors based on the imidazo[1,2-a]pyrazine core: fluorine and deuterium incorporation improve oral absorption and exposure” (J Med Chem, 2011).
